Results on 19 compounds are retold here after ChEMBL document CHEMBL2146404, “O-Hydroxyl- or o-amino benzylamine-tacrine hybrids: multifunctional biometals chelators, antioxidants, and inhibitors of cholinesterase activity and amyloid-β aggregation” (Bioorg Med Chem, 2012).

Molecules are shown by their SMILES. The source made the active and inactive calls. The calls are words filed in the database; no cut-off is given here.

The target in test [1] is Acetylcholinesterase (Electrophorus electricus, UniProt O42275).
Description: Inhibition of electric eel AChE using acetylthiocholine chloride as substrate preincubated for 15 mins by Ellman's method
In test [2] the target is Cholinesterase (Equus caballus, UniProt P81908).
Description: Inhibition of equine serum BuChE using butyrylthiocholine chloride as substrate preincubated for 15 mins by Ellman's method
The target in test [3] is Acetylcholinesterase (Homo sapiens, UniProt P22303). The test can be described thus: Inhibition of human recombinant AChE using acetylthiocholine chloride as substrate preincubated for 15 mins by Ellman's method. (In general: Ellman's reagent forms a yellow product with free thiols.)
The nature of test [4]: Inhibition of […]-pretreated amyloid beta (1 to 42) self-aggregation at 20 uM after 48 hrs by thioflavin T based fluorometric assay.
Test [5] is described as follows: Metal chelating activity of the compound assessed as ferrous ion complex formation at 40 uM after 30 mins by UV-vis spectrometry. The test is classed as functional.
A short description of test [6]: Metal chelating activity of the compound assessed as zinc ion complex formation at 40 uM after 30 mins by UV-vis spectrometry. The format is functional.
Test [7] is described as follows: Metal chelating activity of the compound assessed as cupric ion complex formation at 40 uM after 30 mins by UV-vis spectrometry. The test is classed as functional.

Acetylcholinesterase (Homo sapiens, UniProt P22303), sequence (P22303 whole entry): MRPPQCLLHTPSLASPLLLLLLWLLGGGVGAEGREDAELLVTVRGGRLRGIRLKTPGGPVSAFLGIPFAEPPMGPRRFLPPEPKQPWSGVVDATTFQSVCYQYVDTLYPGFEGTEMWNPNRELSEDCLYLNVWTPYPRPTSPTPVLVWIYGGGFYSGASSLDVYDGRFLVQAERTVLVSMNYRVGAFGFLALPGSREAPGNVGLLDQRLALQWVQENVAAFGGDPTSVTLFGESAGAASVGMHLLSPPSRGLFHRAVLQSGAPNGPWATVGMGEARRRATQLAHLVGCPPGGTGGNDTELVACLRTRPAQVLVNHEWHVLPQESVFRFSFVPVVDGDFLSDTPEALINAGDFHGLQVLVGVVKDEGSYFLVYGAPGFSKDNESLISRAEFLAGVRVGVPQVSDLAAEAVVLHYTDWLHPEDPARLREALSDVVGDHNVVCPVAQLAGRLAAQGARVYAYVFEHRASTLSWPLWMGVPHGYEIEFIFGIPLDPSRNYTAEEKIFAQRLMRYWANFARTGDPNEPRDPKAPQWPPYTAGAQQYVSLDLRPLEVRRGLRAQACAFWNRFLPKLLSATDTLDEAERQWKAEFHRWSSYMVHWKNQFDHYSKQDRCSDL
Acetylcholinesterase (Electrophorus electricus, UniProt O42275), sequence (O42275 whole entry): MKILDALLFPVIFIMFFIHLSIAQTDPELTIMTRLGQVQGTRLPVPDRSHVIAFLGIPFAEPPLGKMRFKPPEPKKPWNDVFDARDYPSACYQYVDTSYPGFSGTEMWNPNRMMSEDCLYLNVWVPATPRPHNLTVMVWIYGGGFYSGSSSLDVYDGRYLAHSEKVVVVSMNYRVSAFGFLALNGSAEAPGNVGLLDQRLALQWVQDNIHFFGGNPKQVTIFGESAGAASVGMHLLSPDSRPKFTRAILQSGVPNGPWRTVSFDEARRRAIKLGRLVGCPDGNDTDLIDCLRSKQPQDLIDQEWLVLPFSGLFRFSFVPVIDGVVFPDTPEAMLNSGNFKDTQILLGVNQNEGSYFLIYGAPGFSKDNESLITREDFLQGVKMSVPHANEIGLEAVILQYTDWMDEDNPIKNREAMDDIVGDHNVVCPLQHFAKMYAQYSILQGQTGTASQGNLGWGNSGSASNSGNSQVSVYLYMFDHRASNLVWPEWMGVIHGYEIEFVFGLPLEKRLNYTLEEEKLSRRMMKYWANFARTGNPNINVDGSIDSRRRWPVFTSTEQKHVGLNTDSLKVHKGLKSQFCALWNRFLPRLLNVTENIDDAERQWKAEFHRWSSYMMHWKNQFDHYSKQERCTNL
Cholinesterase, sequence (P81908 whole entry): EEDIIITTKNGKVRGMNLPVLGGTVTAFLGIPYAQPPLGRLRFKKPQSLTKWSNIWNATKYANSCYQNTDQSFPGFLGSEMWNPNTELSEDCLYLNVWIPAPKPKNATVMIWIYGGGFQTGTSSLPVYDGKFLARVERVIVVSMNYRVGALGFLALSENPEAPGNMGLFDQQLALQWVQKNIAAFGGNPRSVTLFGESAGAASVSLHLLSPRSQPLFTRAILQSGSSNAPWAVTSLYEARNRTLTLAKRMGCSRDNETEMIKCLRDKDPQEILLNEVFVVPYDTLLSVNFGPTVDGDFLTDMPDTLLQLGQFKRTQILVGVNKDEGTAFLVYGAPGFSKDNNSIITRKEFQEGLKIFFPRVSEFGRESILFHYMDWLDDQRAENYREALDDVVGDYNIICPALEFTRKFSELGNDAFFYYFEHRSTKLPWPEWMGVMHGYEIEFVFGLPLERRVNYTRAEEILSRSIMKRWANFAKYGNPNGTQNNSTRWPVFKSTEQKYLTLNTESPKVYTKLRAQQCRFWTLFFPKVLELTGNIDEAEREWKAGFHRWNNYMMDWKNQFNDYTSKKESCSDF

A word on the IC50: it is the concentration that inhibits the measured activity by half. Turning to `Oc1ccccc1CNCCNc1c2c(nc3ccccc13)CCCC2`, the half-maximal inhibitory concentration (IC50) in test [1] was 146 nM; in test [2] it was 10 nM.

With `Oc1ccccc1CNCCCCNc1c2c(nc3cc(Cl)ccc13)CCCC2`, the 50% inhibitory concentration (IC50) was found to be 125 nM in test [1] and 28.1 nM in test [2].

As for `Oc1ccccc1CNCCCCCCCNc1c2c(nc3cc(Cl)ccc13)CCCC2`, the IC50 in test [1] is 10.5 nM; in test [2], 17.8 nM.

Regarding `Oc1ccccc1CNCCCCCCCCCNc1c2c(nc3ccccc13)CCCC2`, the IC50 in test [1] was determined as 7.52 nM; in test [2], 8.2 nM.

Take `Oc1ccccc1CNCCCCCCCNc1c2c(nc3ccccc13)CCCC2`: the IC50 in test [1] worked out at 9.55 nM; in test [2], 5.84 nM.

What is called inhibition is the percentage by which the read-out fell short of the control. Take `CN(C)c1ccccc1CNCCCCCCCNc1c2c(nc3ccccc13)CCCC2`: the results for the 50% inhibitory concentration (IC50) in test [1], in test [2] and in test [3] were 3.5 nM, 2.92 nM and 5.18 nM, respectively. Besides, the inhibition in test [4] turned out to be 30.7%.

For `Oc1ccccc1CNCCNc1c2c(nc3cc(Cl)ccc13)CCCC2`, the half-maximal inhibitory concentration (IC50) in test [1] is 22.5 nM; in test [2], 9.97 nM.

As to `Oc1ccccc1CNCCCNc1c2c(nc3cc(Cl)ccc13)CCCC2`, the IC50 was determined as 43.3 nM in test [1] and 76.5 nM in test [2].

With `Oc1ccccc1CNCCCCCCCCCNc1c2c(nc3cc(Cl)ccc13)CCCC2`, the IC50 in test [1] came to 7.78 nM; in test [2] it was 23 nM.

As to `Oc1ccccc1CNCCCCCCNc1c2c(nc3ccccc13)CCCC2`, the results for the 50% inhibitory concentration (IC50) in test [1] and in test [2] were 25.1 nM and 9.65 nM, respectively.

With `CN(C)c1ccccc1CNCCCCCCCCCNc1c2c(nc3ccccc13)CCCC2`, the result in test [5], in test [6] and in test [7] was Active. For the same compound, the half-inhibitory concentration (IC50) in test [1] stood at 0.55 nM; in test [2], 2.65 nM; in test [3], 3.52 nM. Also, the inhibition in test [4] turned out to be 39.4%.

Regarding `Oc1ccccc1CNCCCCNc1c2c(nc3ccccc13)CCCC2`, the results for the IC50 in test [1] and in test [2] were 252 nM and 20.3 nM, respectively.

Turning to `Oc1ccccc1CNCCCNc1c2c(nc3ccccc13)CCCC2`, the IC50 in test [1] is 131 nM; in test [2], 46.1 nM.

Consider `CN(C)c1ccccc1CNCCCCCCCCNc1c2c(nc3ccccc13)CCCC2`, for which the half-maximal inhibitory concentration (IC50) in test [1] was 1.55 nM; in test [2] it was 2.11 nM; in test [3], 4.04 nM. The inhibition in test [4] turned out to be 38.6%.

With `Oc1ccccc1CNCCCCCCNc1c2c(nc3cc(Cl)ccc13)CCCC2`, the figures for the IC50 in test [1] and in test [2] were 43 nM and 11.1 nM, respectively.

Turning to `c1ccc(CNCCCCCCCCNc2c3c(nc4ccccc24)CCCC3)nc1`, the 50% inhibitory concentration (IC50) in test [1] is 2.95 nM; in test [2], 2.99 nM.

For the compound `Oc1ccccc1CNCCCCCCCCNc1c2c(nc3ccccc13)CCCC2`, the concentration for half-maximal inhibition (IC50) in test [1] was 6.17 nM; in test [2], 6.25 nM.

On to `Oc1ccccc1CNCCCCCCCCNc1c2c(nc3cc(Cl)ccc13)CCCC2`, for which the values for the IC50 in test [1] and in test [2] were 6.77 nM and 18.5 nM, respectively. Also, in test [4], the inhibition was 25.8%.

`CCN(CC)c1ccccc1CNCCCCCCCCNc1c2c(nc3ccccc13)CCCC2`: the concentration for half-maximal inhibition (IC50) came out at 1.36 nM in test [1] and 2.82 nM in test [2]. In addition, the inhibition in test [4] is 40.1%.
